Data set [1] in a line: 28-day repeated dose oral toxicity study (OECD 407): overall toxicity, mortality. The data set is classed as in vivo, male Sprague Dawley rats. How it is done: Potential toxicity of c2 was evaluated with a 28-day repeated dose oral toxicity study (OECD 407) in male Sprague Dawley rats, with a recovery period. Animals (n = 10 per group) were treated with vehicle (1% carboxymethylcellulose in distilled water), c2 at 1 mg/kg or at 20 mg/kg every three days for 28 days. Animals were sacrificed on day 29 and blood and tissues were taken for further analysis. Two recovery groups treated concomitantly with the main study (n = 5, vehicle of 20 mg/kg c2) were monitored for a further 14-day treatment-free period, sacrificed on Day 43 and blood and tissues taken for analysis. (Data available on request).
2.8.4. Repeated dose toxicity
Repeated do se toxicity is the adver se effects o ccurring within a short time of several repeated administrations of a test item over a defined period.
The test item is the article that is the subject of the study.
Vehicle is any agent, which serves as a carrier used to mix, disperse, or solubilize the test item or reference item to facilitate the administration/application to the test system.
2.9. Principle of the test method
The test item suspension or vehicle was administered orally by gavage every three days for 28 days to three groups of male rat s at two do se le vels (low - 1 and high - 20 mg/kg) to as ses s toxicity. Two vehicle control groups were dosed with the vehicle. A recovery group was included to investigate reversibility of any toxicity and persistence or delayed occurrence of […]
Daily clinical obs ervations were performed. Weekly detailed clinical examination s were performed on all animals. Functional observations were performed in the last week of treatment.
Body weights were monitored weekly throughout the study. Feed intake was measured weekly.
Gross necropsy was conducted in all animals th at died or were killed during the study. Full blood analysis and detailed histopathology was performed on conclusion of the main study.
All tissues and carcasse s were placed in 10% formalin and retained for a period of 6 months. […]
3.1. Regulatory references
The study was conducted according to the OECD Guidelines for the Testing of Chemical s, No.407 - Repeated Dose 28-Day Oral Toxicity Study in Rodents. [Adopted: 3 October […]
3.1.2. Good Laboratory Practice
This study was conducted in accordance with the Organization of Economic Cooperation and Development (OECD) Principles of Good Laboratory Practice (as revised in 1997) ENV/MC/CHEM (98) 17. The study was performed in accordance with the agreed protocol and with ICP Firefly Pty Ltd Standard Operating Procedures (SOPs).
3.1.3. Animal Welfare Act compliance
The experimental protocol was approved by the ICP Firefly Animal Ethics Committee, and […]
Regulation 2005 and the Code of Practice under t hat Regulation. It was granted Approval […]
The Sponsor provided a Certificate of Analysis for the test item, which is attached a s an appendix to the report (Appendix A Certificate of Analysis). […]
3.4.1. Justification for species selection
The Specific Pathogen Free [SPF] male Sprague Dawley rat was selected since it is widely accepted and recognised by international guidelines as an appropriate experimental model […]
3.4.2. Species, strain source and housing
A total of 40 young adult Spe cific Pathogen Fr ee Mal e Sprague D awley rats weighing between 189 and 212 grams the b eginning of the experiment were used for the study. The animals were obtained from Animal Resources Ce ntre (ARC), WA, Australia. […]

The nature of data set [2]: Pharmacokinetics of c2 after oral administration to Sprague Dawley rats (LC MS/MS). As to conditions: 100 mg/kg po. It counts as in vivo. How it is done: Rat studies were performed under contract to the accredited animal research establishment ICP Firefly Pty Ltd. (Alexandria, NSW, Australia; Ref. No AW96/042, NSW Dep’t Primary Industries) with ethics approval from the ICP Firefly animal ethics committee. Briefly, male rats (Sprague Dawley, n = 5 / group) were treated with c2 (single dose 100 mg/kg suspended in 0.1% carboxymethylcellulose, po) and housed in metabolic cages. Animals were sacrificed at 1, 2, 8 or 24 h, blood and tissue samples taken for further analysis, with urine and faeces collected for 1, 6 and 16 hours respectively. Following extraction, c2 concentration in plasma was measured using a validated LC MS/MS assay (limit of detection 7.5 ng/mL and lower limit of quantitation 15 ng/mL in plasma, accuracy 98% and imprecision 12.7% at […]).

A short description of data set [3]: 28-day oral toxicity study: gross necropsy and organ weights. The data set is classed as in vivo, male Sprague Dawley rats. As to conditions: for Heart weight on Necropsy: n = 10, mean ± SD. The protocol: The observations were recorded in the form of a sp readsheet and attached as an app endix to the report (Appendix C Study Data Spreadsheets). […]
Haematology and Biochemistry). […]
(Appendix C Study Data Spreadsheets).
Following sacrifice by intraperitoneal injection of sodium pentobarbitone a gros s necrop sy wa s performed. This included determination of the wet weight of the liver, kidneys, adrenals, testes, spleen, thymus, heart, epididymis, prostate + semi nal vesicle s with coagulating glands as whole […]
and brain. […]
Tissues and carcas ses were placed in 10% formalin. The tissues to be processed for histopathological examinations were fixed for at least 48 hours prior to cassette preparation. […]
Slides were […]
evaluated for histology change s under light microscopy at a magnification of 100 to 1000 times.
Individual histopathology results and a summar y are attached a s an app endix to the report (Appendix E Histopathology).
3.14. Statistical analyses
Clinical observations, detailed clinical observations, functional observations, blood and urine analyses and histopathology were summarised by descriptive analysis.
Statistical analyses, consisting of unpaired t-tests, were performed on measured variables: percentage body weight gain s, food consumption and organ weights as a percentage of body weight. A significance level of P < 0.05 was used for all tests.

Where [4] appears, read: Day 43, Gr 5 recovery, 20 mg/kg.

Entries after “also recorded” stand apart in the source; their conditions may differ. Square brackets hold non-standard residues; d marks the D form. Peptide text beside a SMILES is read from it. 2Nal = N[C@@H](Cc1ccc2ccccc2c1)C(=O)O

Take `CC(C)C[C@@H]1NC(=O)[C@H](Cc2ccc3ccccc3c2)NC(=O)[C@H](CCCNC(=N)N)NC(=O)[C@H](Cc2ccc3ccccc3c2)NC(=O)[C@H](CO)NC1=O` [c2, cyclo-((2-Nal)-Leu-Ser-(2-Nal)-Arg)] (cyclo([2Nal]LS[2Nal]R)): the “effective concentration relative to the maximum observed dosage with no toxicity” value in data set [1] (0.1 mg/kg vs 40 mg/kg) is 400 times. Moreover, the “urinalysis and blood analysis” value in data set [1] (1 and 20 mg/kg) is recorded as “no test item related effects”. In addition, the “toxicity (all measures)” value in data set [1] (1 and 20 mg/kg po every three days over 28 days) is on record as “no observable toxicity; also recorded: no toxic effects”. The “mortality related to the treatment” value in data set [1] (1 and 20 mg/kg, main and recovery study) is on record as “No mortalities”. The NOAEL at 672 h in data set [1] (male, Sprague Dawley, rat, in vivo, po, Appendix 1, read-out: maximum observed dosage with no toxicity) came out at 40 mg/kg. In data set [2], the “distribution after oral dosing” value was “presence in the plasma, kidney and liver”; the excretion result is recorded as “majority excreted in faeces”; the “time of peak in urine” value was 2 h. In addition, in data set [3] (1 mg/kg), the “Heart weight (% body weight)” value amounted to 0.31 ± 0.026 % body weight and the “Heart weight on Necropsy” value is 1.211 ± 0.1348 g. In data set [3] (20 mg/kg), the “Heart weight (% body weight)” value is listed as 0.34 ± 0.025 % body weight and the “Heart weight on Necropsy” value was 1.322 ± 0.1050 g. In addition, in data set [3] (Day 29, Gr 2, 1 mg/kg), the “Organ weight: Adrenals” value was 0.0454 ± 0.00783 g, the “Organ weight: Spleen” value is 0.8031 ± 0.0637 g, the “effect on organ weights as a percentage of body weight” value was “did not have any effect” and the “macroscopic changes at necropsy” value is “No gross abnormalities”. In data set [3] (Day 29, Gr 3, 20 mg/kg), the “Organ weight: Adrenals” value turned out to be 0.0473 ± 0.00889 g, the “effect on organ weights as a percentage of body weight” value is “did not have any effect” and the “macroscopic changes at necropsy” value is given as “No gross abnormalities”. In data set [3] (setting [4]), the “Organ weight (% body weight): Adrenals” value was 0.0097 ± 0.00158%, the “Organ weight: Adrenals” value was determined as 0.0443 ± 0.0061 g, the “effect on organ weights as a percentage of body weight” value is reported as “did not have any effect” and the “macroscopic changes at necropsy” value is “No gross abnormalities”.

The record behind these values is PMC12876990, “Targeting secreted PLA2 interactions with EGFR and vimentin to arrest prostate tumour growth” (Cell Death & Disease, 2025).
